Assay results from ChEMBL document CHEMBL3785001, “New pentasubstituted pyrrole hybrid atorvastatin-quinoline derivatives with antiplasmodial activity” (Bioorg Med Chem Lett, 2016).
pIC50: −log10 of the molar value.

Legend:
[1] = tested on: Plasmodium falciparum; assay: Antimalarial activity against chloroquine-sensitive Plasmodium falciparum NF54 infected in human erythrocytes incubated for 48 hrs by [3H]hypoxanthine incorporation assay; format: functional, organism-based
[2] = in vitro; details: monkey
[3] = tested on: Plasmodium falciparum; assay: microbe, parasite or virus in culture; details: W2, 48 h
[4] = Cytotoxicity against African green monkey BGM cells assessed as cell viability after 24 hrs by neutral red assay; format: cell-based; details: chlorocebus aethiops, read-out: MLD50
[5] = tested on: Plasmodium falciparum; assay: Potency index, ratio of primaquine IC50 to compound IC50 for chloroquine-resistant Plasmodium falciparum W2 infected in human red blood cells; format: functional

| Structure (SMILES) | pIC50 [1] | selectivity ratio [2] | pIC50 [3] | CC50 at 24 h [4] | Ratio IC50 [5] |
| --- | --- | --- | --- | --- | --- |
| C[C@@H]1CC[C@H]2[C@@H](C)C(c3cccn3C)O[C@@H]3O[C@@]4(C)CC[C@@H]1[C@]32OO4 (some centres undefined) | 8.34 | – | – | – | – |
| CCCCn1c(-c2ccc(F)cc2)c(-c2ccccc2)c(C(=O)Nc2ccccc2)c1C(C)C | – | > 345 | 5.19 | > 2200 µM | – |
| CC(C)c1c(C(=O)Nc2ccccc2)c(-c2ccccc2)c(-c2ccc(F)cc2)n1CCCNc1ccnc2cc(Cl)ccc12 | – | 210 | 6.19 | 136 µM | 5 |
| CC(C)c1c(C(=O)Nc2ccccc2)c(-c2ccccc2)c(-c2ccc(F)cc2)n1CCNc1ccnc2cc(Cl)ccc12 | – | > 1680 | 6.00 | > 1660 µM | 5 |
| COc1cc(NC(C)CCCn2c(-c3ccc(F)cc3)c(-c3ccccc3)c(C(=O)Nc3ccccc3)c2C(C)C)c2ncccc2c1 (centres undefined) | – | > 1110 | 5.85 | > 1560 µM | 5 |
| CC(C)c1c(C(=O)Nc2ccccc2)c(-c2ccccc2)c(-c2ccc(F)cc2)n1CCCCNc1ccnc2cc(Cl)ccc12 | – | 468 | 6.40 | 187 µM | 5 |
| CC(C)c1c(C(=O)Nc2ccccc2)c(-c2ccccc2)c(-c2ccc(F)cc2)n1CC[C@@H](O)C[C@@H](O)CC(=O)O [ATORVASTATIN] | – | – | 4.99 | – | – |
| COc1cc(NC(C)CCCN)c2ncccc2c1 (centres undefined) [PRIMAQUINE] | – | 239 | 5.72 | 452 µM | – |
